Laboratory results reported in patent publication US6706734B2, “Arylpiperidinol and arylpiperidine derivatives and pharmaceuticals containing the same” (Daiichi Suntory Pharma Co., Ltd., priority 1996, dated 2004).
Where a name gives a salt, the structure may show the parent alone.

Experiments:
Sodium channel = assay: Inhibitory effect of veratrizine-induced sodium channel activity (synaptosome membrane potential, Rhodamine 6G); assay type: biochemical, Wistar rats; conditions: compound 0.1 μM, rat brain synaptozomes, veratridine-induced depolarization
Procedure: Inhibitory Effect of Veratrizine-induced Sodium Channel Activity
The membrane potential of the synaptozomes prepared from the brain membrane of Wistar rats (male, 10 to 12 weeks old) was measured by the method of Aiuchi et al. (t. Aiuchi et al: Biochimi. Biophys. Acta. 771, 228 (1984)) using a membrane potential sensitive fluorescent dye Rhodamine 6G to evaluate the effects of suppression of the compound on the veratrizine-inducing depolarization response.

DBA/2N type mice = assay: Audiogenic seizure suppressing effect; assay type: in vivo; conditions: Mus musculus, ip, 20 min, compound 10 mg/kg, i.p.; audio stimulus after 20 minutes; suppression of average seizure score; read-out: Antiseizure effect (suppression rate %)
Procedure: Audiogenic Seizure Suppressing Effect
The audiogenic seizure suppressing effect of the compounds was evaluated by the method of Sarro et al. [G. B. De Sarro et al., Br. J. Pharmacol., 93, 247 (1988)]. That is, the compound dissolved in 10% 2-hydroxypropyl-β-cyclodextrin was administered intraperitoneally to DBA/2N type mice (male, 3 weeks old). After 20 minutes, a supersonic washer was used to apply audio stimulus of at least 90 dB for one minute. The wild running (WR), clonic seizures (clonus), tonic seizures (tonus), and respiratory arrest (RA) were observed.

[1] = Acute toxicity after intravenous injection; conditions: mouse, in vivo, ddY mice (male, 6 weeks old), death rate up to 24 hours, read-out: 50% lethal dosage LD50 of acute toxicity
From the text: The compound according to the present invention is low in toxicity.

T-type Ca^2+ channel = assay: T-type calcium channel inhibitory effect (whole-cell patch clamp, hippocampal CA1 pyramidal cells); conditions: read-out: T-type Ca^2+ channel inhibitory effect IC50; suppression of peak current after one minute of application; rat hippocampal CA1 pyramidal cells
Procedure: T-Type Calcium Channel Inhibitory Effect
The hippocampal CA1 pyramidal cells were isolated from Wistar rats (female, 1 week old) according to the method reported by Takahashi et al. [K. Takahashi et al.; J. Pharmacol. Exp. Ther., 256, 169 (1991)] and the T-type calcium current under conditions of a fixed membrane potential was measured using the whole-cell configration of the patch clamp technique. The effects of the compounds were evaluated from the rate of suppression of the peak current after one minute of application using the concentration clamp method.

Compound OC1(c2ccc(Oc3ccc(F)cc3)cc2)CCN(C/C=C/c2ccccc2)CC1 (as salt: fumarate) has a melting point of 148 to 150 °C.
In the case of O=C(CN1CCC(O)(c2ccc(Oc3ccc(F)cc3)cc2)CC1)c1ccccc1 (as salt: fumarate), the melting point is reported as 50 to 52 °C.
With O[C@H](COc1ccccc1)CN1CCC(O)(c2ccc(Oc3ccc(F)cc3)cc2)CC1 (as salt: fumarate) the melting point was 48 to 50 °C.
With OC1(c2ccc(-c3ccccc3)c(F)c2)CCN(C/C=C/c2ccccc2)CC1 [Compound 17, (E)-4-(3-fluoro-4-phenyl)phenyl-1-(3-phenyl-2-propenyl)-4-piperidinol] the “Anti-veratridine effect (inhibiting rate %)” value (Sodium channel) was 26.8%, the inhibition in vivo at 10 mg/kg (DBA/2N type mice) was 88% and the LD50 at 24 h [1] was 32 mg/kg. It also gave an IC50 (T-type Ca^2+ channel) of 1900 nM.
With OC1(c2ccc(Oc3ccccc3)cc2)CCN(C/C=C/c2ccccc2)CC1 [Compound 34, (E)-4-(4-phenoxy)phenyl-1-(3-phenyl-2-propenyl)-4-piperidinol] the “Anti-veratridine effect (inhibiting rate %)” value (Sodium channel) was 29.9%, the inhibition in vivo at 10 mg/kg (DBA/2N type mice) was 80% and the IC50 (T-type Ca^2+ channel) was 1700 nM.
In the case of OC(COc1ccccc1)CN1CCC(O)(c2ccc(Cc3ccc(F)cc3)cc2)CC1 (stereo not shown) [Compound 39, 4-[4-(4-fluorophenyl)methylphenyl]-1-(2-hydroxy-3-phenoxy)propyl-4-piperidinol], the “Anti-veratridine effect (inhibiting rate %)” value (Sodium channel; 0.1 µM) is reported as 18.7%, the inhibition in vivo at 10 mg/kg (DBA/2N type mice) is reported as 90% and the IC50 (T-type Ca^2+ channel) is reported as 1300 nM.
For O[C@H](COc1ccccc1)CN1CCC(O)(c2ccc(-c3ccccc3)c(F)c2)CC1 [Compound 42, (S)-4-(3-fluoro-4-phenyl)phenyl-1-(2-hydroxy-3-phenoxy)propyl-4-piperidinol], the “Anti-veratridine effect (inhibiting rate %)” value (Sodium channel) was 21%, the inhibition in vivo at 10 mg/kg (DBA/2N type mice) was 72% and the IC50 (T-type Ca^2+ channel) was 550 nM.
With O[C@@H](COc1ccccc1)CN1CCC(O)(c2ccc(-c3ccccc3)c(F)c2)CC1 [Compound 43, (R)-4-(3-fluoro-4-phenyl)phenyl-1-(2-hydroxy-3-phenoxy)propyl-4-piperidinol] the “Anti-veratridine effect (inhibiting rate %)” value (Sodium channel) was 21.2%, the inhibition in vivo at 10 mg/kg (DBA/2N type mice) was 90% and the IC50 (T-type Ca^2+ channel) was 1400 nM.
